Like-named read-outs stand apart in the source and are kept apart here.
Key:
KP1004 KPC-2 [1] = test: Biapenem potentiation (MPC@1), strain KP1004 KPC-2; type: cell-based; details: minimum BLI concentration inhibiting growth with biapenem 1 μg/mL; tested up to 40 μg/mL
Description: (§1) Biapenem was present in the test medium at 1 μg/mL. […] Table 3 summarizes the BLI potency of biapenem potentiation (MPC@1) for two strains overexpressing class A (KPC) and class D (OXA-48) carbapenemases. Biapenem MIC for each strain is also shown.

KP1086 OXA-48 = test: Biapenem potentiation (MPC@1), strain KP1086 OXA-48; type: cell-based; details: minimum BLI concentration inhibiting growth with biapenem 1 μg/mL; tested up to 40 μg/mL
Description: as §1

[2] = target: purified class A, C and D enzymes (β-lactamases) (Escherichia coli, UniProt Q9L5C7); test: biochemical; type: biochemical
[3] = target: purified class A, C and D enzymes (β-lactamases) (Klebsiella pneumoniae, UniProt Q6XEC0); test: biochemical; type: biochemical
[4] = target: purified class A, C and D enzymes (β-lactamases) (Klebsiella pneumoniae, UniProt Q9F663); test: biochemical; type: biochemical
ECL1002 = test: Aztreonam potentiation (MPC@4), strain ECL1002; details: minimum BLI concentration inhibiting growth with aztreonam 4 μg/mL; tested up to 40 μg/mL
ec308 SHV-5 = test: Aztreonam potentiation (MPC@4), strain ec308 SHV-5; details: minimum BLI concentration inhibiting growth with aztreonam 4 μg/mL; tested up to 40 μg/mL
ec302 TEM-10 = test: Aztreonam potentiation (MPC@4), strain ec302 TEM-10; details: minimum BLI concentration inhibiting growth with aztreonam 4 μg/mL; tested up to 40 μg/mL
KP1004 KPC-2 [5] = test: Aztreonam potentiation (MPC@4), strain KP1004 KPC-2; details: minimum BLI concentration inhibiting growth with aztreonam 4 μg/mL; tested up to 40 μg/mL
EC1010 CMY-6 = test: Aztreonam potentiation (MPC@4), strain EC1010 CMY-6; details: minimum BLI concentration inhibiting growth with aztreonam 4 μg/mL; tested up to 40 μg/mL
KP1010 SHV-12 = test: Aztreonam potentiation (MPC@4), strain KP1010 SHV-12; details: minimum BLI concentration inhibiting growth with aztreonam 4 μg/mL; tested up to 40 μg/mL
KP1009 CTX-M-15 = test: Aztreonam potentiation (MPC@4), strain KP1009 CTX-M-15; details: minimum BLI concentration inhibiting growth with aztreonam 4 μg/mL; tested up to 40 μg/mL
KP1005 CTX-M-14 = test: Tigemonam potentiation (MPC@4), strain KP1005 CTX-M-14; details: minimum BLI concentration inhibiting growth with tigemonam 4 μg/mL; tested up to 40 μg/mL
AB1053 OXA-72 = test: Meropenem potentiation (MPC@8), strain AB1053 OXA-72; type: cell-based, Acinetobacter baumannii; details: minimum BLI concentration inhibiting growth with meropenem 8 μg/mL; tested up to 20 μg/mL
AB1054 OXA-23 = test: Meropenem potentiation (MPC@8), strain AB1054 OXA-23; type: cell-based, Acinetobacter baumannii; details: minimum BLI concentration inhibiting growth with meropenem 8 μg/mL; tested up to 20 μg/mL
[6] = target: T1, purified class A, C and D enzymes (β-lactamases) (Acinetobacter baumannii, UniProt Q9L4P2); test: biochemical; type: biochemical; details: purified OXA-23; nitrocefin (NCF) as reporter substrate
T1 construct: rows headed: Ki (OXA-23, NCF), uM; other: purified OXA-23; nitrocefin (NCF) as reporter substrate

[7] = target: purified class A, C and D enzymes (β-lactamases) (Enterobacter cloacae, UniProt P05364); test: biochemical; type: biochemical
[8] = target: T2, purified class A, C and D enzymes (β-lactamases) (Pseudomonas aeruginosa, UniProt P24735); test: biochemical; type: biochemical
T2 construct: rows headed: Ki (Pa-AmpC, NCF), uM; other: purified Pa-AmpC; nitrocefin (NCF) as reporter substrate

[9] = purified OXA-48, nitrocefin (NCF) as reporter substrate
[10] = purified KPC-2, nitrocefin (NCF) as reporter substrate

T1 sequence (Q9L4P2 whole entry): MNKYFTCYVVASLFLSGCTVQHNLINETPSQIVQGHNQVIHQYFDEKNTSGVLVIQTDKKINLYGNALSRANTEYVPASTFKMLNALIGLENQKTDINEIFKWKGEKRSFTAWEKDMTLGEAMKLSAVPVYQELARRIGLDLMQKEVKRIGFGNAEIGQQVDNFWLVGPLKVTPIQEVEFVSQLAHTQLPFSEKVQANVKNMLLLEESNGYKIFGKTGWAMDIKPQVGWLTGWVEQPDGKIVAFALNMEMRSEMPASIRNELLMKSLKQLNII
purified class A, C and D enzymes (β-lactamases) (Enterobacter cloacae, UniProt P05364), sequence (P05364 21-381): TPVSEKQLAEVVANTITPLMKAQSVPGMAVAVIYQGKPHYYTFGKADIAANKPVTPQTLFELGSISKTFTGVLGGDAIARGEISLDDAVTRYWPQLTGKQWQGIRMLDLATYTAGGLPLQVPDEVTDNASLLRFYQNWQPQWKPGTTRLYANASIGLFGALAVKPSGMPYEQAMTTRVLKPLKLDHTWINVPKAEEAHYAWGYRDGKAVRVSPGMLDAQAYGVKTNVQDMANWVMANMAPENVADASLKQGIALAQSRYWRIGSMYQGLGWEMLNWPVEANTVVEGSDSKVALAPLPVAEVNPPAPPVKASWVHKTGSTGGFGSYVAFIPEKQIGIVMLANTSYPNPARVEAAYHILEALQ
T2 sequence (P24735 whole entry): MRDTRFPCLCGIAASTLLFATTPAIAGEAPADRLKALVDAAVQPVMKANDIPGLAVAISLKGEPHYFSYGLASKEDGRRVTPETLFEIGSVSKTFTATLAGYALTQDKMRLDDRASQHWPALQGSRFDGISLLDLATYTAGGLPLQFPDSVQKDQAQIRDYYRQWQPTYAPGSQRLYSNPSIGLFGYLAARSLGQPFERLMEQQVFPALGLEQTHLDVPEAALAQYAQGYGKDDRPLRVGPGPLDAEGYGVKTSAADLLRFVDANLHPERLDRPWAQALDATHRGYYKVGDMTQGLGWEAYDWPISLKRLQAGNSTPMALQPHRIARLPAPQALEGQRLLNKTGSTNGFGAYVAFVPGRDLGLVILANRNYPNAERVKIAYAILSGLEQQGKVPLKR
purified class A, C and D enzymes (β-lactamases) (Escherichia coli, UniProt Q9L5C7), sequence (Q9L5C7 entry or part of it): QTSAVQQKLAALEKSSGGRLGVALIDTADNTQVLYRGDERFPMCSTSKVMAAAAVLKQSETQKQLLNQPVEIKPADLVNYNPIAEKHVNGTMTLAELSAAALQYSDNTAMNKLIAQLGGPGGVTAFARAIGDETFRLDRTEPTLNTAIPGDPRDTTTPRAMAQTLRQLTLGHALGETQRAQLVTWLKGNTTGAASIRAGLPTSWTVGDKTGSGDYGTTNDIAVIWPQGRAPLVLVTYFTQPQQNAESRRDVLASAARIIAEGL

SMILES | BPM MPC1 KP1004 KPC-2 (KP1004 KPC-2 [1]) | BPM MPC1 OXA-48 KP1086 (KP1086 OXA-48) | AZT MPC4 ECL1002 (ECL1002) | AZT MPC4 SHV-5 ec308 (ec308 SHV-5) | AZT MPC4 TEM-10 ec302 (ec302 TEM-10) | AZT MPC4 KPC-2 KP1004 (KP1004 KPC-2 [5]) | AZT MPC4 CMY-6 EC1010 (EC1010 CMY-6) | AZT MPC4 SHV-12 KP1010 (KP1010 SHV-12) | AZT MPC4 CTX-M-15 KP1009 (KP1009 CTX-M-15) | TIG MPC4 CTX-M-14 KP1005 (KP1005 CTX-M-14) | MPM MPC8 AB1053 OXA-72 (AB1053 OXA-72) | MPM MPC8 AB1054 OXA-23 (AB1054 OXA-23) | Ki [6] [nM] | Ki (P99, NCF), uM [7] | Ki (OXA-48, NCF), uM [3, 9] | Ki (KPC-2, NCF), uM [4, 10] | Ki [8] [nM] | also measured
O=C(O)[C@H]1/C(=C/CO)O[C@@H]2CC(=O)N21 [Clavulanic Acid, reference compound] | Y (Y = 5 μg/mL < MPC@1 ≤ 20 μg/mL) | Z (Z = MPC@1 > 20 μg/mL) | Z (Z = MPC@4 > 20 μg/mL) | X (X = MPC@4 ≤ 5 μg/mL) | X (X = MPC@4 ≤ 5 μg/mL) | Z (Z = MPC@4 > 20 μg/mL) | Z (Z = MPC@4 > 20 μg/mL) | X (X = MPC@4 ≤ 5 μg/mL) | X (X = MPC@4 ≤ 5 μg/mL) | X (X = MPC@4 ≤ 5 μg/mL) |  |  |  |  |  |  |  | Ki (CTX-M-14, NCF), uM [2]: X (key: X = Ki ≤ 0.1 μM; Y = 0.1 μM < Ki ≤ 1 μM; Z = Ki > 1 μM); Ki (OXA-48, NCF), uM [3]: Z (key: X = Ki ≤ 0.1 μM; Y = 0.1 μM < Ki ≤ 1 μM; Z = Ki > 1 μM); Ki (KPC-2, NCF), uM [4]: Z (key: X = Ki ≤ 0.1 μM; Y = 0.1 μM < Ki ≤ 1 μM; Z = Ki > 1 μM)
O=C([O-])c1ccnc2c1O[B-](O)(O)CC2.[Na+].[Na+] [Compound 38, Disodium; 8,8-dihydroxy-7-oxa-2-aza-8-boranuidabicyclo[4.4.0]deca-1,3,5-triene-5-carboxylate] | X (X = MPC@1 ≤ 5 μg/mL) | Y (Y = 5 μg/mL < MPC@1 ≤ 20 μg/mL) | Z (Z = MPC@4 > 20 μg/mL) | Z (Z = MPC@4 > 20 μg/mL) | Z (Z = MPC@4 > 20 μg/mL) | Y (Y = 5 μg/mL < MPC@4 ≤ 20 μg/mL) | Y (Y = 5 μg/mL < MPC@4 ≤ 20 μg/mL) | Z (Z = MPC@4 > 20 μg/mL) | Z (Z = MPC@4 > 20 μg/mL) | Z (Z = MPC@4 > 20 μg/mL) | Z (Z = MPC@1 > 20 μg/mL) | Z (Z = MPC@1 > 20 μg/mL) | > 1000 | Z (key: X = Ki ≤ 0.1 μM; Y = 0.1 μM < Ki ≤ 1 μM; Z = Ki > 1 μM) | X (X = Ki ≤ 0.1 μM) | Y (Y = 0.1 μM < Ki ≤ 1 μM) | > 1000 | 
N#Cc1ccc2c(c1C(=O)[O-])O[B-](O)(O)CC2.[Na+].[Na+] [Compound 54, Disodium; 8-cyano-4,4-dihydroxy-5-oxa-4-boranuidabicyclo[4.4.0]deca-1(6),7,9-triene-7-carboxylate] | X (X = MPC@1 ≤ 5 μg/mL) | Z (Z = MPC@1 > 20 μg/mL) | Z (Z = MPC@4 > 20 μg/mL) | Z (Z = MPC@4 > 20 μg/mL) | Z (Z = MPC@4 > 20 μg/mL) | Z (Z = MPC@4 > 20 μg/mL) | Y (Y = 5 μg/mL < MPC@4 ≤ 20 μg/mL) | Z (Z = MPC@4 > 20 μg/mL) | Z (Z = MPC@4 > 20 μg/mL) | Z (Z = MPC@4 > 20 μg/mL) | Z (Z = MPC@1 > 20 μg/mL) | Z (Z = MPC@1 > 20 μg/mL) | 100 to 1000 | Y (key: X = Ki ≤ 0.1 μM; Y = 0.1 μM < Ki ≤ 1 μM; Z = Ki > 1 μM) | X (X = Ki ≤ 0.1 μM) | Z (Z = Ki > 1 μM) | > 1000 | 
COCC#CCOc1ccc2c(c1C(=O)[O-])O[B-](O)(O)CC2.[Na+].[Na+] [Compound 31, Disodium; 4,4-dihydroxy-8-(4-methoxybut-2-ynoxy)-5-oxa-4-boranuidabicyclo[4.4.0]deca-1(6),7,9-triene-7-carboxylate] | X (X = MPC@1 ≤ 5 μg/mL) | X (X = MPC@1 ≤ 5 μg/mL) | X (X = MPC@4 ≤ 5 μg/mL) | X (X = MPC@4 ≤ 5 μg/mL) | Y (Y = 5 μg/mL < MPC@4 ≤ 20 μg/mL) | X (X = MPC@4 ≤ 5 μg/mL) | X (X = MPC@4 ≤ 5 μg/mL) | X (X = MPC@4 ≤ 5 μg/mL) | Y (Y = 5 μg/mL < MPC@4 ≤ 20 μg/mL) | Y (Y = 5 μg/mL < MPC@4 ≤ 20 μg/mL) | X (X = MPC@1 ≤ 5 μg/mL) | X (X = MPC@1 ≤ 5 μg/mL) | < 100 | X (key: X = Ki ≤ 0.1 μM; Y = 0.1 μM < Ki ≤ 1 μM; Z = Ki > 1 μM) | X (X = Ki ≤ 0.1 μM) | X (X = Ki ≤ 0.1 μM) | < 100 | 
NCC#CCOc1ccc2c(c1C(=O)[O-])O[B-](O)(O)CC2.[Na+].[Na+] [Compound 32, Disodium; 8-(4-aminobut-2-ynoxy)-4,4-dihydroxy-5-oxa-4-boranuidabicyclo[4.4.0]deca-1(6),7,9-triene-7-carboxylate] | X (X = MPC@1 ≤ 5 μg/mL) | X (X = MPC@1 ≤ 5 μg/mL) | X (X = MPC@4 ≤ 5 μg/mL) | Y (Y = 5 μg/mL < MPC@4 ≤ 20 μg/mL) | X (X = MPC@4 ≤ 5 μg/mL) | X (X = MPC@4 ≤ 5 μg/mL) | X (X = MPC@4 ≤ 5 μg/mL) | X (X = MPC@4 ≤ 5 μg/mL) | X (X = MPC@4 ≤ 5 μg/mL) | Y (Y = 5 μg/mL < MPC@4 ≤ 20 μg/mL) | X (X = MPC@1 ≤ 5 μg/mL) | X (X = MPC@1 ≤ 5 μg/mL) | < 100 | X (key: X = Ki ≤ 0.1 μM; Y = 0.1 μM < Ki ≤ 1 μM; Z = Ki > 1 μM) | X (X = Ki ≤ 0.1 μM) | X (X = Ki ≤ 0.1 μM) | < 100 | 
O=C(O)c1c(OCC2OCCO2)ccc2c1OB(O)CC2 [Compound 26, 7-(1,3-Dioxolan-2-ylmethoxy)-2-hydroxy-3,4-dihydro-1,2-benzoxaborinine-8-carboxylic acid] | X (X = MPC@1 ≤ 5 μg/mL) | X (X = MPC@1 ≤ 5 μg/mL) | X (X = MPC@4 ≤ 5 μg/mL) | Y (Y = 5 μg/mL < MPC@4 ≤ 20 μg/mL) | Y (Y = 5 μg/mL < MPC@4 ≤ 20 μg/mL) | X (X = MPC@4 ≤ 5 μg/mL) | X (X = MPC@4 ≤ 5 μg/mL) | X (X = MPC@4 ≤ 5 μg/mL) | Y (Y = 5 μg/mL < MPC@4 ≤ 20 μg/mL) | Z (Z = MPC@4 > 20 μg/mL) | X (X = MPC@1 ≤ 5 μg/mL) | Y (Y = 5 μg/mL < MPC@1 ≤ 20 μg/mL) | < 100 |  | X (X = Ki ≤ 0.1 μM) | X (X = Ki ≤ 0.1 μM) |  | Ki (P99, NCF), uM ([7]; purified P99, nitrocefin (NCF) as reporter substrate): X (X = Ki ≤ 0.1 μM); Ki ([8]; purified Pa-AmpC, nitrocefin (NCF) as reporter substrate, read-out: Ki (Pa-AmpC, NCF)): < 100 nM

Reference: patent US10618918B2, “Substituted boronic acids as antimicrobials” (priority 2015, dated 2020)
